{"source": "PubChem BioAssay (NCI)", "test_in_all_cases": "growth of human tumour cells (NCI), 48 h", "key": {"[1]": {"tested_on": "BT-549 breast"}, "[2]": {"tested_on": "CCRF-CEM leukemia"}, "[3]": {"tested_on": "DU-145 prostate"}, "[4]": {"tested_on": "EKVX NSCLC"}, "[5]": {"tested_on": "IGROV1 ovarian"}, "[6]": {"tested_on": "MDA-MB-231 breast"}, "[7]": {"tested_on": "NCI/ADR-RES ovarian"}, "[8]": {"tested_on": "OVCAR-5 ovarian"}, "[9]": {"tested_on": "RPMI-8226 leukemia"}, "[10]": {"tested_on": "U251 CNS"}, "[11]": {"tested_on": "UACC-257 melanoma"}}, "note": "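Cells were grown in 96-well plates and exposed to each compound for 48 hours at five concentrations; endpoints were interpolated linearly between bracketing concentrations, or set to the highest concentration if not reached. Definition used: TGI = concentration required for complete inhibition of growth.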", "data": [{"smiles": "Clc1cc(OC2C3CC4CC(C3)CC2C4)nc(Cl)n1", "note": "(stereo unspecified)", "values": [{"measurement": "TGI", "setting": "[1]", "result": 52.4, "unit": "µM"}, {"measurement": "TGI", "setting": "[2]", "result": 38.8, "unit": "µM"}, {"measurement": "TGI", "setting": "[3]", "result": 39.9, "unit": "µM"}, {"measurement": "TGI", "setting": "[4]", "result": 29.6, "unit": "µM"}, {"measurement": "TGI", "setting": "[5]", "result": 23.3, "unit": "µM"}, {"measurement": "TGI", "setting": "[6]", "result": 27.5, "unit": "µM"}, {"measurement": "TGI", "setting": "[7]", "result": 88.5, "unit": "µM"}, {"measurement": "TGI", "setting": "[8]", "result": 44.2, "unit": "µM"}, {"measurement": "TGI", "setting": "[9]", "result": 43, "unit": "µM"}, {"measurement": "TGI", "setting": "[10]", "result": 31.9, "unit": "µM"}, {"measurement": "TGI", "setting": "[11]", "result": 27.4, "unit": "µM"}]}, {"smiles": "N#CC1=C(N)N(c2ccccc2)C(c2ccco2)C1(C#N)C#N", "note": "(stereo unspecified)", "values": [{"measurement": "TGI", "setting": "[1]", "result": 37.4, "unit": "µM"}, {"measurement": "TGI", "setting": "[2]", "result": 43.9, "unit": "µM"}, {"measurement": "TGI", "setting": "[3]", "result": 37.4, "unit": "µM"}, {"measurement": "TGI", "setting": "[4]", "result": 73.3, "unit": "µM"}, {"measurement": "TGI", "setting": "[5]", "result": 47.9, "unit": "µM"}, {"measurement": "TGI", "setting": "[6]", "result": 35.1, "unit": "µM"}, {"measurement": "TGI", "setting": "[7]", "result": 56.2, "unit": "µM"}, {"measurement": "TGI", "setting": "[8]", "result": 48.4, "unit": "µM"}, {"measurement": "TGI", "setting": "[9]", "result": 45.5, "unit": "µM"}, {"measurement": "TGI", "setting": "[10]", "result": 43, "unit": "µM"}, {"measurement": "TGI", "setting": "[11]", "result": 37.2, "unit": "µM"}]}, {"smiles": "Nc1cccc2cc(Cl)cnc12", "values": [{"measurement": "TGI", "setting": "[1]", "result": "> 100", "unit": "µM"}, {"measurement": "TGI", "setting": "[2]", "result": "> 100", "unit": "µM"}, {"measurement": "TGI", "setting": "[3]", "result": "> 100", "unit": "µM"}, {"measurement": "TGI", "setting": "[4]", "result": "> 100", "unit": "µM"}, {"measurement": "TGI", "setting": "[5]", "result": "> 100", "unit": "µM"}, {"measurement": "TGI", "setting": "[6]", "result": "> 100", "unit": "µM"}, {"measurement": "TGI", "setting": "[7]", "result": "> 100", "unit": "µM"}, {"measurement": "TGI", "setting": "[8]", "result": "> 100", "unit": "µM"}, {"measurement": "TGI", "setting": "[9]", "result": "> 100", "unit": "µM"}, {"measurement": "TGI", "setting": "[10]", "result": "> 100", "unit": "µM"}, {"measurement": "TGI", "setting": "[11]", "result": "> 100", "unit": "µM"}]}, {"smiles": "O=[N+]([O-])C(=C1NCCN1)/C(Cl)=C(\\Cl)Br", "values": [{"measurement": "TGI", "setting": "[1]", "result": "> 96", "unit": "µM"}, {"measurement": "TGI", "setting": "[2]", "result": 28.5, "unit": "µM"}, {"measurement": "TGI", "setting": "[3]", "result": "> 100", "unit": "µM"}, {"measurement": "TGI", "setting": "[4]", "result": "> 60.5", "unit": "µM"}, {"measurement": "TGI", "setting": "[5]", "result": "> 100", "unit": "µM"}, {"measurement": "TGI", "setting": "[6]", "result": "> 100", "unit": "µM"}, {"measurement": "TGI", "setting": "[7]", "result": "> 100", "unit": "µM"}, {"measurement": "TGI", "setting": "[8]", "result": "> 100", "unit": "µM"}, {"measurement": "TGI", "setting": "[9]", "result": 62.4, "unit": "µM"}, {"measurement": "TGI", "setting": "[10]", "result": "> 100", "unit": "µM"}, {"measurement": "TGI", "setting": "[11]", "result": "> 87.3", "unit": "µM"}]}, {"smiles": "Clc1ccc(/C=C/c2nc3ccccc3s2)cc1Cl", "values": [{"measurement": "TGI", "setting": "[1]", "result": "> 100", "unit": "µM"}, {"measurement": "TGI", "setting": "[2]", "result": "> 100", "unit": "µM"}, {"measurement": "TGI", "setting": "[3]", "result": "> 100", "unit": "µM"}, {"measurement": "TGI", "setting": "[4]", "result": "> 100", "unit": "µM"}, {"measurement": "TGI", "setting": "[5]", "result": "> 100", "unit": "µM"}, {"measurement": "TGI", "setting": "[6]", "result": "> 100", "unit": "µM"}, {"measurement": "TGI", "setting": "[7]", "result": "> 100", "unit": "µM"}, {"measurement": "TGI", "setting": "[8]", "result": "> 100", "unit": "µM"}, {"measurement": "TGI", "setting": "[9]", "result": "> 100", "unit": "µM"}, {"measurement": "TGI", "setting": "[10]", "result": "> 100", "unit": "µM"}, {"measurement": "TGI", "setting": "[11]", "result": "> 100", "unit": "µM"}]}, {"smiles": "COC(=O)[C@H]1CO[C@@H](C(C)(C)C)N1C(=O)N1C=CC(=O)C[C@@H]1C", "values": [{"measurement": "TGI", "setting": "[1]", "result": "> 100", "unit": "µM"}, {"measurement": "TGI", "setting": "[2]", "result": "> 100", "unit": "µM"}, {"measurement": "TGI", "setting": "[3]", "result": "> 100", "unit": "µM"}, {"measurement": "TGI", "setting": "[4]", "result": "> 100", "unit": "µM"}, {"measurement": "TGI", "setting": "[5]", "result": "> 100", "unit": "µM"}, {"measurement": "TGI", "setting": "[6]", "result": "> 100", "unit": "µM"}, {"measurement": "TGI", "setting": "[7]", "result": "> 100", "unit": "µM"}, {"measurement": "TGI", "setting": "[8]", "result": "> 100", "unit": "µM"}, {"measurement": "TGI", "setting": "[9]", "result": "> 100", "unit": "µM"}, {"measurement": "TGI", "setting": "[10]", "result": "> 100", "unit": "µM"}, {"measurement": "TGI", "setting": "[11]", "result": "> 100", "unit": "µM"}]}]}
